# Experimental data taken from patent EP0314302A2, “Herbicidal o-carbomethoxy-sulfonylureas” (E.I. DU PONT DE NEMOURS AND COMPANY, priority 1987, dated 1989).
# Key:
# Quackgrass = assay: Test 9 postemergence; format: in vivo, Agropyron repens; settings: scale 0-100
# Procedure: Plastic windowsill pots containing planting medium were seeded with bahiagrass, bindweed (Convolvulus spp), guinea grass (Panicum maximum), large crabgrass (Digitaria sanguinalis) and pigweed (Amaranthus spp). Individual 15-cm plastic pots contained sandbur (Cenchrus echinatus), Mikania cordata, Boston fern (Nephrolepis exalata), quackgrass (Agropyron repens), elephantgrass (Pennisetum purpureum) and sowthistle (Sonchus spp) plants.
# Plants were treated postemergence with Compound I formulated in a non-phytotoxic solvent. Plants were visually rated 22 days after treatment (DAT). Injury and weed control ratings were based on the scale of 0 to 100 where 0 = no effect, 20 = minimal control and 100 = complete control.
# Bindweed = assay: Test 11 citrus pots, preemergence to the weeds; format: in vivo, Convolvulus spp.; settings: Preemergence 32 g/ha; 0.25% X-77 surfactant; scale 0-100
# Procedure: (§1) Budded citrus seedlings were planted in 30-liter plastic pots which were also seeded with sandbur, guineagrass, narrowleaf panicum, common ragweed, yellow nutsedge, purple nutsedge and bindweed. Compound I was applied preemergence and postemergence to the weeds. Treatments were sprayed to simulate the trunk-to-trunk herbicide application method used in some citrus groves. The compound was also applied postemergence to weeds grown in windowsill flats. The flats were filled with planting medium and seeded with morningglory (Ipomoea spp.). purple nutsedge (Cyperus rotundus), pigweed (Amaranthus spp.), bindweed (Convolvulus spp.), narrowleaf panicum (Panicum maximum), common ragweed (Ambrosia artemisiifolia), sandbur (Cenchrus echinatus), itchgrass (Rottboellia exaltata), johnsongrass (Sorghum halepense), guineagrass (Panicum maximum), smooth crabgrass (Digitaria ischaemum), broadleaf signalgrass (Brachiaria platyphylla), bermudagrass (Cynodon dactylon), goosegrass (Eleusine indica), large crabgrass (Digitaria sanguinalis) and yellow nutsedge (Cyperus esculentus).
# (§2) The compound was formulated and sprayed with 0.25% X-77 surfactant in water. Plants were visually rated 21 and 29 days after treatment and compared with appropriate controls. Injury ratings were based on the scale of 0 to 100, where 0 indicates no effect, 20 indicates minimum effect and 100 indicates complete control. […]
# Avena fatua = assay: Test 1 greenhouse, preemergence; format: in vivo; settings: 21 days, scale 0-100
# Procedure: (§3) Seeds of Bromus tectorum, Kochia scoparia, Salsoa kali, Avena fatua, Convolvulus arvensis, Secale cereale, Setaria viridis and Triticum aestivum were placed in 26-cm plastic pans containing a pasteurized sandy loam soil (pH 6.5, 1% organic matter). Plantings were maintained in the greenhouse for 18-28 days at which time the postemergence treatments were applied using a nonphytotoxic solvent as the carrier for the herbicide. The preemergence segment of the test was seeded immediately before herbicide application using Bromus tectorum, Kochia scoparia, Polygonum convolvulus, Salsoa kali, Avena fatua, Convolvulus arvensis, Secale cereale, Setaria viridis, Aegilops cylindrica, Amaranthus retroflexus, Chenopodium album, Hordeum vulgare, Triticum aestivum, Sorghum bicolor, and Zea mays. All treatments were maintained in the greenhouse for an additional 21 days at which time visual assessment of weed control was determined using a scale of 0 to 100 for each species where 0 represented no control and 100 represented complete control.
# Convolvulus arvensis = assay: Test 1 greenhouse, preemergence; format: in vivo; settings: 21 days, scale 0-100
# Procedure: as §3
# Polygonum convolvulus = assay: Test 1 greenhouse, preemergence; format: in vivo; settings: 21 days, scale 0-100
# Procedure: as §3
# Bromus tectorum = assay: Test 1 greenhouse, preemergence; format: in vivo; settings: 21 days, scale 0-100
# Procedure: as §3
# Kochia scoparia = assay: Test 1 greenhouse, preemergence; format: in vivo; settings: 21 days, scale 0-100
# Procedure: as §3
# Triticum aestivum = assay: Test 1 greenhouse, preemergence; format: in vivo; settings: 21 days, scale 0-100
# Procedure: as §3
# Aegilops cylindrica = assay: Test 1 greenhouse, preemergence; format: in vivo; settings: 21 days, scale 0-100
# Procedure: as §3
# Sorghum bicolor = assay: Test 1 greenhouse, preemergence; format: in vivo; settings: 21 days, scale 0-100
# Procedure: as §3
# Salsoa kali = assay: Test 1 greenhouse, preemergence; format: in vivo; settings: 21 days, scale 0-100
# Procedure: as §3
# Setaria viridis = assay: Test 1 greenhouse, preemergence; format: in vivo; settings: 21 days, scale 0-100
# Procedure: as §3
# Guineagrass = assay: Test 11 windowsill flats, postemergence; format: in vivo, Panicum maximum; settings: Postemergence 32 g/ha, 0.25% X-77 surfactant, scale 0-100
# Procedure: as §1, §2
# Narrowleaf panicum = assay: Test 11 windowsill flats, postemergence; format: in vivo, Panicum maximum; settings: Postemergence 32 g/ha, 0.25% X-77 surfactant, scale 0-100
# Procedure: as §1, §2
# Yellow nutsedge = assay: Test 11 windowsill flats, postemergence; format: in vivo, Cyperus esculentus; settings: Postemergence 32 g/ha, 0.25% X-77 surfactant, scale 0-100
# Procedure: as §1, §2
structure (smiles),measurement,setting,value
"COC(=O)c1cccnc1S(=O)(=O)NC(=O)Nc1nc(OC)cc(OC)n1 [Compound I, 2-[[(4,6-dimethoxypyrimidin-2-yl)aminocarbonyl]aminosulfonyl]-3-pyridinecarboxylic acid, methyl ester]",Plant Injury Rating 22 DAT,Quackgrass; 8 g/ha,70
same,Plant Injury Rating 22 DAT,Quackgrass; 16 g/ha,90
same,Plant Injury Rating 22 DAT,Quackgrass; 32 g/ha,100
same,Injury ratings,Bindweed,90
same,visual assessment of weed control,Avena fatua; 4 g/ha,0
same,visual assessment of weed control,Avena fatua; 8 g/ha,40
same,visual assessment of weed control,Avena fatua; 16 g/ha,50
same,visual assessment of weed control,Avena fatua; 32 g/ha,60
same,visual assessment of weed control,Avena fatua; 64 g/ha,90
same,visual assessment of weed control,Avena fatua; 125 g/ha,100
same,visual assessment of weed control,Convolvulus arvensis; 4 g/ha,20
same,visual assessment of weed control,Convolvulus arvensis; 8 g/ha,40
same,visual assessment of weed control,Convolvulus arvensis; 16 g/ha,90
same,visual assessment of weed control,Convolvulus arvensis; 32 g/ha,90
same,visual assessment of weed control,Convolvulus arvensis; 64 g/ha,100
same,visual assessment of weed control,Convolvulus arvensis; 125 g/ha,100
same,visual assessment of weed control,Polygonum convolvulus; 4 g/ha,20
same,visual assessment of weed control,Polygonum convolvulus; 8 g/ha,20
same,visual assessment of weed control,Polygonum convolvulus; 16 g/ha,80
same,visual assessment of weed control,Polygonum convolvulus; 32 g/ha,80
same,visual assessment of weed control,Polygonum convolvulus; 64 g/ha,80
same,visual assessment of weed control,Polygonum convolvulus; 125 g/ha,100
same,visual assessment of weed control,Bromus tectorum; 4 g/ha,50
same,visual assessment of weed control,Bromus tectorum; 8 g/ha,70
same,visual assessment of weed control,Bromus tectorum; 16 g/ha,80
same,visual assessment of weed control,Bromus tectorum; 32 g/ha,90
same,visual assessment of weed control,Bromus tectorum; 64 g/ha,90
same,visual assessment of weed control,Bromus tectorum; 125 g/ha,100
same,visual assessment of weed control,Kochia scoparia; 4 g/ha,80
same,visual assessment of weed control,Kochia scoparia; 8 g/ha,80
same,visual assessment of weed control,Kochia scoparia; 16 g/ha,100
same,visual assessment of weed control,Kochia scoparia; 32 g/ha,100
same,visual assessment of weed control,Kochia scoparia; 64 g/ha,100
same,visual assessment of weed control,Kochia scoparia; 125 g/ha,100
same,visual assessment of weed control,Triticum aestivum; 4 g/ha,70
same,visual assessment of weed control,Triticum aestivum; 8 g/ha,100
same,visual assessment of weed control,Triticum aestivum; 16 g/ha,100
same,visual assessment of weed control,Triticum aestivum; 32 g/ha,100
same,visual assessment of weed control,Triticum aestivum; 64 g/ha,100
same,visual assessment of weed control,Triticum aestivum; 125 g/ha,100
same,visual assessment of weed control,Aegilops cylindrica; 4 g/ha,30
same,visual assessment of weed control,Aegilops cylindrica; 8 g/ha,50
same,visual assessment of weed control,Aegilops cylindrica; 16 g/ha,60
same,visual assessment of weed control,Aegilops cylindrica; 32 g/ha,80
same,visual assessment of weed control,Aegilops cylindrica; 64 g/ha,100
same,visual assessment of weed control,Aegilops cylindrica; 125 g/ha,100
same,visual assessment of weed control,Sorghum bicolor; 4 g/ha,90
same,visual assessment of weed control,Sorghum bicolor; 8 g/ha,100
same,visual assessment of weed control,Sorghum bicolor; 16 g/ha,100
same,visual assessment of weed control,Sorghum bicolor; 32 g/ha,100
same,visual assessment of weed control,Sorghum bicolor; 64 g/ha,100
same,visual assessment of weed control,Sorghum bicolor; 125 g/ha,100
same,visual assessment of weed control,Salsoa kali; 4 g/ha,50
same,visual assessment of weed control,Salsoa kali; 8 g/ha,70
same,visual assessment of weed control,Salsoa kali; 16 g/ha,70
same,visual assessment of weed control,Salsoa kali; 32 g/ha,80
same,visual assessment of weed control,Salsoa kali; 64 g/ha,100
same,visual assessment of weed control,Salsoa kali; 125 g/ha,100
same,visual assessment of weed control,Setaria viridis; 4 g/ha,20
same,visual assessment of weed control,Setaria viridis; 8 g/ha,30
same,visual assessment of weed control,Setaria viridis; 16 g/ha,50
same,visual assessment of weed control,Setaria viridis; 32 g/ha,70
same,visual assessment of weed control,Setaria viridis; 64 g/ha,90
same,visual assessment of weed control,Setaria viridis; 125 g/ha,100
same,Injury ratings,Guineagrass,100
same,Injury ratings,Narrowleaf panicum,90
same,Injury ratings,Yellow nutsedge,80
